Here are results for 1 substance from paper PMC8486176 (Cancer Science, 2021).

The experiment has as its system NUGC‐4 cells. Put plainly: Immunofluorescence binding of RhoB‐labeled peptides to fixed NUGC‐4 cells. In kind it is cell-based, human. The following applies: ImageJ quantification, Figure 4C.

Ends that are not written are not given here. * marks the point of attachment. RhodamineB = CCN(CC)c1ccc2c(-c3ccccc3C(=O)*)c3ccc(=[N+](CC)CC)cc-3oc2c1

As to “RhoB‐CG7C: CG7C peptide labeled with rhodamine B, negative control (RhodamineB-CGGGGGGGC; cysteine pairing not given here)”, the “mean fluorescence intensity (MFI)” value is listed as “small positive MFI”.
